US4335249A, “Herbicidal diphenyl ethers, sulfides, sulfoxides and sulfones” (Rohm and Haas Company, priority 1976, dated 1982)

Legend:
Type in all cases: in vivo
wild oats (Avena fatua) [1] = test: Preemergence herbicidal activity, wild oats; conditions: Pre
Description: (§1) Using the procedure described below, compounds of the invention are evaluated for control of several of the following plant species:
(§2) The following est procedure is employed. Seeds of selected crops and weeds are planted in soil in flats. For preemergence tests, the flats are treated with the test compound immediately after the planting. For postemergence tests, the seeds are allowed to germinate, and after two weeks the flats are treated with the test compound. The compound to be evaluated is dissolved in acetone, diluted with water, and sprayed over the flats using a carrier volume equivalent to 50 gallons per acre at the rate of application (pounds per acre, lb/A.) specified in the tables. About two weeks after the application of the test compound, the state of growth of the plants is observed and the phytotoxic effect of the compound is evaluated. Tables III and IV give the average percent control achieved by test compounds in terms of the percent of the plants which are killed by the compounds.

[2] = tested on: velvetleaf (Abutilon theophrasti); test: Preemergence herbicidal activity, velvetleaf; conditions: Pre
Description: as §1, §2

marigold (Tagetes spp.) [3] = test: Preemergence herbicidal activity, marigold
Description: as §1, §2

wild oats (Avena fatua) [4] = test: Postemergence herbicidal activity, wild oats; conditions: Post
Description: as §1, §2

[5] = tested on: morningglory (Ipomoca spp.); test: Preemergence herbicidal activity, morningglory
Description: as §1, §2

[6] = tested on: cocklebur (Xanthium pensylvanicum); test: Preemergence herbicidal activity, cocklebur
Description: as §1, §2

[7] = tested on: tomato (Lycopersicon esculentum); test: Preemergence herbicidal activity, tomato; conditions: Pre
Description: as §1, §2

marigold (Tagetes spp.) [8] = test: Postemergence herbicidal activity, marigold
Description: as §1, §2

foxtail (Setaria spp.) [9] = test: Preemergence herbicidal activity, foxtail; conditions: Pre
Description: as §1, §2

[10] = tested on: yellow nutsedge (Cyperus esculentus); test: Preemergence herbicidal activity, yellow nutsedge
Description: as §1, §2

[11] = tested on: barnyardgrass (Echinochloa crusgalli); test: Postemergence herbicidal activity, barnyardgrass; conditions: Post
Description: as §1
(§3) The following est procedure is employed. Seeds of selected crops and weeds are planted in soil in flats. For preemergence tests, the flats are treated with the test compound immediately after the planting. For postemergence tests, the seeds are allowed to germinate, and after two weeks the flats are treated with the test compound. The compound to be evaluated is dissolved in acetone, diluted with water, and sprayed over the flats using a carrier volume equivalent to 50 gallons per acre at the rate of application (pounds per acre, lb/A.) specified in the tables.

[12] = tested on: downybrome (Bromus tectorum); test: Postemergence herbicidal activity, downybrome; conditions: Post
Description: as §1, §2

[13] = tested on: velvetleaf (Abutilon theophrasti); test: Postemergence herbicidal activity, velvetleaf
Description: as §1, §3

[14] = tested on: tomato (Lycopersicon esculentum); test: Postemergence herbicidal activity, tomato; conditions: Post
Description: as §1, §2

foxtail (Setaria spp.) [15] = test: Postemergence herbicidal activity, foxtail; conditions: Post
Description: as §1, §2

[16] = tested on: yellow nutsedge (Cyperus esculentus); test: Postemergence herbicidal activity, yellow nutsedge
Description: as §1, §2

[17] = tested on: barnyardgrass (Echinochloa crusgalli); test: Preemergence herbicidal activity, barnyardgrass; conditions: Pre
Description: as §1, §3

[18] = tested on: morningglory (Ipomoca spp.); test: Postemergence herbicidal activity, morningglory
Description: as §1, §2

[19] = tested on: downybrome (Bromus tectorum); test: Preemergence herbicidal activity, downybrome; conditions: Pre
Description: as §1, §2

[20] = tested on: cocklebur (Xanthium pensylvanicum); test: Postemergence herbicidal activity, cocklebur
Description: as §1, §2

Compound: CC(Oc1ccc(Oc2ccc(C(F)(F)F)cc2Cl)cc1)C(=O)O (stereo not drawn) [Example 16]
- % control, Wild oat (wild oats (Avena fatua) [1]; 2 lb/A): 70%
- % control, Velvetleaf ([2]; 2 lb/A): 0%
- % control, Marigold (marigold (Tagetes spp.) [3]; Pre, 2 lb/A): 0%
- % control, Wild oat (wild oats (Avena fatua) [4]; 2 lb/A): 80%
- % control, Morningglory ([5]; Pre, 2 lb/A): 0%
- % control, Cocklebur ([6]; Pre, 2 lb/A): 0%
- % control, Tomato ([7]; 2 lb/A): 0%
- % control, Marigold (marigold (Tagetes spp.) [8]; Post, 2 lb/A): 0%
- % control, Foxtail (foxtail (Setaria spp.) [9]; 2 lb/A): 100%
- % control, Nutsedge ([10]; Pre, 2 lb/A): 0%
- % control, Barnyardgrass ([11]; 2 lb/A): 100%
- % control, Downybrome ([12]; 2 lb/A): 0%
- % control, Velvetleaf ([13]; Post, 2 lb/A): 0%
- % control, Tomato ([14]; 2 lb/A): 0%
- % control, Foxtail (foxtail (Setaria spp.) [15]; 2 lb/A): 90%
- % control, Nutsedge ([16]; Post, 2 lb/A): 0%
- % control, Barnyardgrass ([17]; 2 lb/A): 100%
- % control, Morningglory ([18]; Post, 2 lb/A): 0%
- % control, Downybrome ([19]; 2 lb/A): 70%
- % control, Cocklebur ([20]; Post, 2 lb/A): 0%

Compound: CCOC(=O)C(C)Oc1ccc(Sc2ccccc2C(F)(F)F)cc1 (stereo not drawn) [Example 44, ethyl 2-(4-(2-trifluoromethylphenylthio)phenoxy) propionate]
- pest or weed control at 8966.8 g/ha (wild oats (Avena fatua) [1]; Avena fatua, pre-emergence, 336 h, 8 lb/A, read-out: % control, Wild oat): 0%
- pest or weed control at 8966.8 g/ha ([2]; Abutilon theophrasti, pre-emergence, 336 h, 8 lb/A): 30%
- pest or weed control at 8966.8 g/ha (marigold (Tagetes spp.) [3]; pre-emergence, 336 h, 8 lb/A): 0%
- pest or weed control at 4483.4 g/ha (wild oats (Avena fatua) [4]; Avena fatua, post-emergence, 336 h, 4 lb/A, read-out: % control, Wild oat): 0%
- pest or weed control at 8966.8 g/ha ([5]; Ipomoea, pre-emergence, 336 h, 8 lb/A): 0%
- pest or weed control at 8966.8 g/ha ([6]; Xanthium strumarium, pre-emergence, 336 h, 8 lb/A): 0%
- pest or weed control at 8966.8 g/ha ([7]; Solanum lycopersicum, pre-emergence, 336 h, 8 lb/A): 0%
- pest or weed control at 4483.4 g/ha (marigold (Tagetes spp.) [8]; post-emergence, 336 h, 4 lb/A): 0%
- pest or weed control at 8966.8 g/ha (foxtail (Setaria spp.) [9]; Setaria, pre-emergence, 336 h, 8 lb/A): 0%
- pest or weed control at 8966.8 g/ha ([10]; Cyperus, pre-emergence, 336 h, 8 lb/A): 0%
- pest or weed control at 4483.4 g/ha ([11]; Echinochloa crus-galli, post-emergence, 336 h, 4 lb/A): 0%
- pest or weed control at 4483.4 g/ha ([12]; Bromus tectorum, post-emergence, 336 h, 4 lb/A): 0%
- pest or weed control at 4483.4 g/ha ([13]; Abutilon theophrasti, post-emergence, 336 h, 4 lb/A): 20%
- pest or weed control at 4483.4 g/ha ([14]; Solanum lycopersicum, post-emergence, 336 h, 4 lb/A): 0%
- pest or weed control at 4483.4 g/ha (foxtail (Setaria spp.) [15]; Setaria, post-emergence, 336 h, 4 lb/A): 20%
- pest or weed control at 4483.4 g/ha ([16]; Cyperus, post-emergence, 336 h, 4 lb/A): 0%
- pest or weed control at 8966.8 g/ha ([17]; Echinochloa crus-galli, pre-emergence, 336 h, 8 lb/A): 80%
- pest or weed control at 4483.4 g/ha ([18]; Ipomoea, post-emergence, 336 h, 4 lb/A): 0%
- pest or weed control at 8966.8 g/ha ([19]; Bromus tectorum, pre-emergence, 336 h, 8 lb/A): 60%
- pest or weed control at 4483.4 g/ha ([20]; Xanthium strumarium, post-emergence, 336 h, 4 lb/A): 0%

Compound: COC(=O)C(C)Oc1ccc(Oc2ccc(C(F)(F)F)cc2Cl)cc1 (stereo not drawn) [Example 4, Methyl 2-[4-(2-chloro-4-trifluoromethylphenoxy)phenoxy] propionate]
- pest or weed control at 2241.7 g/ha (wild oats (Avena fatua) [1]; Avena fatua, pre-emergence, 336 h, 2 lb/A, read-out: % control, Wild oat): 40%
- pest or weed control at 2241.7 g/ha ([2]; Abutilon theophrasti, pre-emergence, 336 h, 2 lb/A): 20%
- pest or weed control at 2241.7 g/ha (marigold (Tagetes spp.) [3]; pre-emergence, 336 h, 2 lb/A): 0%
- pest or weed control at 2241.7 g/ha (wild oats (Avena fatua) [4]; Avena fatua, post-emergence, 336 h, 2 lb/A, read-out: % control, Wild oat): 100%
- pest or weed control at 2241.7 g/ha ([5]; Ipomoea, pre-emergence, 336 h, 2 lb/A): 0%
- pest or weed control at 2241.7 g/ha ([6]; Xanthium strumarium, pre-emergence, 336 h, 2 lb/A): 0%
- pest or weed control at 2241.7 g/ha ([7]; Solanum lycopersicum, pre-emergence, 336 h, 2 lb/A): 0%
- pest or weed control at 2241.7 g/ha (marigold (Tagetes spp.) [8]; post-emergence, 336 h, 2 lb/A): 30%
- pest or weed control at 2241.7 g/ha (foxtail (Setaria spp.) [9]; Setaria, pre-emergence, 336 h, 2 lb/A): 100%
- pest or weed control at 2241.7 g/ha ([10]; Cyperus, pre-emergence, 336 h, 2 lb/A): 0%
- pest or weed control at 2241.7 g/ha ([11]; Echinochloa crus-galli, post-emergence, 336 h, 2 lb/A): 100%
- pest or weed control at 2241.7 g/ha ([12]; Bromus tectorum, post-emergence, 336 h, 2 lb/A): 99%
- pest or weed control at 2241.7 g/ha ([13]; Abutilon theophrasti, post-emergence, 336 h, 2 lb/A): 80%
- pest or weed control at 2241.7 g/ha ([14]; Solanum lycopersicum, post-emergence, 336 h, 2 lb/A): 60%
- pest or weed control at 2241.7 g/ha (foxtail (Setaria spp.) [15]; Setaria, post-emergence, 336 h, 2 lb/A): 100%
- pest or weed control at 2241.7 g/ha ([16]; Cyperus, post-emergence, 336 h, 2 lb/A): 0%
- pest or weed control at 2241.7 g/ha ([17]; Echinochloa crus-galli, pre-emergence, 336 h, 2 lb/A): 100%
- pest or weed control at 2241.7 g/ha ([18]; Ipomoea, post-emergence, 336 h, 2 lb/A): 20%
- pest or weed control at 2241.7 g/ha ([19]; Bromus tectorum, pre-emergence, 336 h, 2 lb/A): 0%
- pest or weed control at 2241.7 g/ha ([20]; Xanthium strumarium, post-emergence, 336 h, 2 lb/A): 100%
